Measured values as given in patent US12071586B2, “Composition and method for controlling bacteria in formations” (priority 2017, dated 2024).

Tests used:
SRB [1] = assay: Hydrogen sulfide inhibition in mock-produced water spiked with SRB, H2S by Draeger tubes; format: cell-based, sulfate-reducing bacteria (SRB); settings: 20 ppm MoO4 alone, mock produced water (Example 6)
Experimental: (§1) Hydrogen sulfide inhibition was tested in mock-produced water approximating water used in hydraulic fracturing operations and was made to a total dissolved solids concentration of 3% with a mixture of instant ocean and NaCl salts. The water was supplemented with nutrients and sulfate to allow SRB to metabolize and create H2S. The water was spiked with SRB and then treated with the various treatment conditions noted below in Table 3 and sealed. Treatment conditions were: Control: No biocide or nitrate.
(§2) H2S was measured at intervals using H2S detecting Draeger tubes. Dissolved H2S was released into the gas phase with the addition of hydrochloric acid so that H2S could be measured with the Draeger tubes to get a complete reading of all H2S produced during the course of the example.
Example 6 was performed in accordance with Example 4 using mock produced water. Samples of the following were mixed with the mock produced water.

SRB [2] = assay: Hydrogen sulfide inhibition in actual produced water (Eagle Ford shale, diluted to 3%), H2S by Draeger tubes; format: cell-based, sulfate-reducing bacteria (SRB); settings: 20 ppm MoO4 alone, actual produced water (Example 7)
Experimental: as §1, §2
Samples were prepared in accordance with Example 4, except that actual produced water sourced from the Eagle Ford shale that was diluted to 3% using deionized water was used in the samples.
Example 7 was performed in accordance with Example 6 using actual produced water. Samples of the following were mixed with the […].

[O]=[Mo](=[O])([O-])[O-] [MoO4, molybdate]
Total H2S (SRB [1]): 1974 ppm | Total H2S (SRB [2]): 3188 ppm
